Active and inactive are the calls of the source. The rule behind the calls is not given here. A value given as a limit tells only on which side of the number the result lay.

This assay deals with Protein disulfide-isomerase A3 (Homo sapiens) (UniProt P30101). Briefly: inhibitors of thiol isomerase ERp57, dose response, selectivity assay, biochemical, dry powder samples, plate reader (AID 652266). Particulars: purified ERp57 enzyme.
Sequence of Protein disulfide-isomerase A3 (Homo sapiens) (P30101 whole entry, looked up): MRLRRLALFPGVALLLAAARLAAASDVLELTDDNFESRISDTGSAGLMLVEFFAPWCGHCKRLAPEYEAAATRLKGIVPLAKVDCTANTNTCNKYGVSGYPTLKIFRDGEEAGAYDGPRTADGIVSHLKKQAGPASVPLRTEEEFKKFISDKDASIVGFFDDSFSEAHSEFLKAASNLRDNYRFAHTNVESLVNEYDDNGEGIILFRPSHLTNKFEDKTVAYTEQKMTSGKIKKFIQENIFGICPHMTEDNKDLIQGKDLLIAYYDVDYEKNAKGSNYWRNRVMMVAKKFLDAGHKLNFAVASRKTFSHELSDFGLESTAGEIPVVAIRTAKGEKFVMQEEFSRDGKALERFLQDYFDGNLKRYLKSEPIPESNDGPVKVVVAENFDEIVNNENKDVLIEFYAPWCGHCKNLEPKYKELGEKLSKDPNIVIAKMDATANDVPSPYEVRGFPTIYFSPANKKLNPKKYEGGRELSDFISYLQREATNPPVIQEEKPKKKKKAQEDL
By AC50 is commonly meant the concentration giving half of the maximal activity seen. On to `CCOC(=O)C1(CCOc2ccccc2)CCN(Cc2ccc(O)cc2)CC1`, for which the AC50 was > 30 µM (inactive).

Turning to `CCOC(=O)C1(CCOc2ccccc2)CCN(Cc2ccc(O)c(Cl)c2)CC1`, the AC50 is > 30 µM (inactive).

For `C/C1=C\C[C@H](OC(=O)c2ccc(O)cc2)/C(C)=C/[C@@H](O)C(C)(C)CCC1`, the AC50 was > 30 µM (inactive).

In the case of `O=C(NC1CCCC1)C1(CCOc2ccccc2)CCN(Cc2ccc(O)c(Cl)c2)CC1`, the AC50 was > 30 µM (inactive).

`O=C(Nc1ccccc1)C1(CCOc2ccccc2)CCN(Cc2ccc(O)c(Cl)c2)CC1`: the AC50 was > 30 µM (inactive).

Consider `CCOC(=O)C1(CCOc2ccccc2)CCN(C(=O)c2ccc(O)c(Cl)c2)CC1`, for which the AC50 was > 30 µM (inactive).

For `CCN(C)C(=O)C1(CCOc2ccccc2)CCN(Cc2ccc(O)c(Cl)c2)CC1`, the AC50 is > 30 µM (inactive).

As for `CC(C)OC(=O)C1(CCOc2ccccc2)CCN(Cc2ccc(O)c(Cl)c2)CC1`, the AC50 was > 30 µM (inactive).

On to `CCOC(=O)C1(CCOc2ccccc2)CCN(Cc2ccc(OC)c(Cl)c2)CC1`, for which the AC50 is > 30 µM (inactive).

Regarding `CC(C)(C)OC(=O)C1(CCOc2ccccc2)CCN(Cc2ccc(O)c(Cl)c2)CC1`, the AC50 is > 30 µM (inactive).

With `CCOC(=O)c1c(CN2CCN(CCO)CC2)n(-c2ccccc2)c2cc(Br)c(O)cc12`, the AC50 is > 30 µM (inactive).

Regarding `C/C1=C\[C@@H](O)C(C)(C)CCCC2(C)OC2C[C@@H]1OC(=O)c1ccc(O)cc1` (some centres not stated), the AC50 is > 30 µM (inactive).

For the origin of these results see PubChem BioAssay AID652266 (Broad Institute, 2013).
